The results in this text go back to patent publication US8211907B2, “Fused indane compound” (priority 2007, dated 2012).

pIC50, pKi: −log10 of the molar value. Structures can show the parent of a compound that is named as a salt. Where two headings read alike, the source gives them in different places.

One experiment has as its system male ddy mouse. Kind of experiment: MES (maximal electroshock seizure) inhibitory action. Type of experiment: in vivo. As to conditions: for ED50: oral administration, electroshock 30 minutes later. Here is the method:
A test compound was orally administered to a male ddy mouse, an inhibitory action on the seizures caused by an electroshock applied at 30 minutes later (Interval 10 ms, Duration 0.9 ms, Amplitude 50 mA, Gate 0.2 s) was evaluated, and an NMDA receptor inhibitory action in vivo was measured (Palmer G C, Harris E W, Ray R, Stagnitto M L, Schmiesing R J. Arch Int Pharmacodyn Ther. 1992 May-June; 317: 16-34).
In general terms: Protection in the maximal electroshock model is a classic sign of anticonvulsant action.

Experiment [1] concerns the target NMDA receptor.
Experiment [2] concerns T1, NMDA receptor.
T1 construct: IC50
Kind of experiment: Intracellular calcium concentration determination by FLIPR in rat first-generation neurocytes (NMDA/glycine stimulation). Type of experiment: cell-based. As to conditions: rat first-generation neurocytes (DIV7-9), NMDA/glycine-induced calcium rise, 10 μM MK-801 = 100% inhibition. As to the method:
1) Preparation of Rat First-Generation Neurocytes
Anesthetized with ether, Wistar rats (Nippon SLC) at the 19th day of pregnancy were let die from blood loss by breast incision. The abdomen was cut open, and the womb was extracted, and the fetus was removed. The whole brain was removed, the hemicerebrum was then isolated in Neurobasal medium (Glu, Asp-free; Gibco), and the meninx was removed. The hemicerebrum was recovered by centrifugation, and suspended in a cell-dispersing solution (0.36 mg/ml papain, 150 U/ml DNase 1, 0.02% L-cysteine monohydrochloride monohydrate, 0.02% bovine serum albumin, 0.5% glucose, Ca^2+, Mg^2+-free PBS), and treated at 37° C. for 15 minutes. This was centrifuged at 400 g for 5 minutes, and the supernatant was removed by suction. This was suspended in a neurocyte culture medium (Sumitomo Bakelite), and the cell masses were removed using a filter. The number of the living cells was counted, and 100,000 cells/well were incubated on a 96-well plate (Biocoat PDL96W black/clear (Nippon Becton Dickinson)) (37° C., 5% CO2).
2) Intracellular Calcium Concentration Determination by FLIPR (Fluorometric Imaging Plate Reader)
The culture medium of rat first-generation neurocytes (DIV7-9) was removed by suction, and the cells were washed once with a 100 μl assay buffer (Hank's Balanced Salt Solution (Ca^2+, Mg^2+-free), 20 mM Hepes-NaOH (pH 7.4), 1 mM CaCl2). 100 μl of the assay buffer containing Fluo3 (Dojin Chemical) was added thereto, and incubated for 1 hour (37° C., 5% CO2). The cells were washed three times with 100 μl of the assay buffer, and then a compound solution dissolved in 1 μl of dimethylsulfoxide, and 100 μl of the assay buffer containing 2.5 μM (final concentration) tetrodotoxin were added thereto and incubated for 30 minutes (37° C., 5% CO2). The fluorescent intensity was measured at intervals of two seconds, and ten seconds after the measurement start, 50 μl of a ligand solution (Hank's Balanced Salt Solution (Ca^2+, Mg^2+-free), 20 mM Hepes-NaOH (pH 7.4), 1 mM CaCl2, 9 μM NMDA, 30 μM glycine) containing the compound solution dissolved in 0.5 μl of dimethylsulfoxide was added thereto, and the fluorescent intensity was measured for 120 seconds from the start of the measurement. The data measured for total of 120 seconds (60 times in total) were averaged.

In experiment [3] the target is NMDA receptor. Kind of experiment: [3H] MK-801 binding test on rat brain membrane specimen.
[4] abbreviates: Mus musculus, po, 0.5 h, read-out: ED50.

A word on the ED50: it is the midpoint of the dose-response relation. Usually pKi stands for −log10 of the Ki, conventionally taken in molar units. Higher therefore signals a small Ki. What is called pIC50 is the negative decadic logarithm of the IC50, by convention in mol/L.

Turning to `c1ccc2c(c1)C[C@H]1CCCN[C@@H]21` (racemic) [Compound A, (4aRS,9bRS)-2,3,4,4a,5,9b-hexahydro-1H-indeno[1,2-b]pyridine, reference compound], the median effective dose (ED50) in the experiment on male ddy mouse (setting [4]) is over 80 mg/kg. The anti-seizure action result in the experiment with male ddy mouse (at 80 mg/kg, oral) is listed as “did not exhibit an anti-seizure action”. This molecule also gave a negative-log Ki (pKi) at NMDA receptor [1] of 4.42.

In the case of `c1ccc([C@@H]2c3ccccc3[C@@H]3NCCC[C@H]23)cc1` (racemic) [Compound B, (4aRS,5RS,9bRS)-5-phenyl-2,3,4,4a,5,9b-hexahydro-1H-indeno[1,2-b]pyridine, reference compound], the pKi on NMDA receptor [1] is 4.64.

Molecule `c1ccc([C@@H]2c3ccccc3[C@@H]3NCCC[C@H]23)cc1` (racemic) [Compound C, reference compound] had a negative logarithm of the Ki (pKi) at NMDA receptor [1] of 4.70.

As to `CC[C@]12CCCN[C@H]1c1ccccc1C2` (racemic) [Example 1, (4aRS,9bRS)-4a-ethyl-2,3,4,4a,5,9b-hexahydro-1H-indeno[1,2-b]pyridine hydrochloride], in the experiment with NMDA receptor [2] (read-out: IC50), the pIC50 is 5.29. Besides, the ED50 with male ddy mouse (setting [4]) is 6.8 mg/kg. The pKi at NMDA receptor [3] is 6.05.

Regarding `C[C@@]12CCCN[C@@H]1c1ccccc1S2` (racemic) [Example 13, (4aRS,9bRS)-4a-methyl-1,2,3,4,4a,9b-hexahydro[1]benzothieno[3,2-b]pyridine hydrochloride], in the experiment with male ddy mouse (setting [4]), the ED50 was determined as 14 mg/kg. The molecule further showed a pKi on NMDA receptor [3] of 5.70.

Turning to `C[C@]12CCCN[C@H]1c1ccccc1C2` (racemic) [Example 22, (4aRS,9bRS)-4a-methyl-2,3,4,4a,5,9b-hexahydro-1H-indeno[1,2-b]pyridine hydrochloride], the negative-log IC50 (pIC50) in the experiment on NMDA receptor [2] (read-out: IC50) is 4.47. For the same molecule, the ED50 with male ddy mouse (setting [4]) is 11 mg/kg. This molecule gave a pKi at NMDA receptor [3] of 5.29.

Consider `C[C@]12CCCCN[C@H]1c1ccccc1C2` (racemic) [Example 38-1, (5aRS,10bRS)-5a-methyl-1,2,3,4,5,5a,6,10b-octahydroindeno[1,2-b]azepine hydrochloride], for which, at NMDA receptor [3], the negative-log Ki (pKi) is 6.30.

`C[C@]12CCCCN[C@@H]1c1ccccc1C2` (racemic) [Example 38-2, (5aRS,10bSR)-5a-methyl-1,2,3,4,5,5a,6,10b-octahydroindeno[1,2-b]azepine hydrochloride] showed a pKi on NMDA receptor [3] of 5.20.

Consider `CN1CCC[C@]2(C)Cc3ccccc3[C@H]12` (racemic) [Example 42, (4aRS,9bRS)-1,4a-dimethyl-2,3,4,4a,5,9b-hexahydro-1H-indeno[1,2-b]pyridine methanesulfonate], for which the median effective dose (ED50) in the experiment on male ddy mouse (setting [4]) amounted to 31 mg/kg. In addition, the negative-log Ki (pKi) on NMDA receptor [1] was 5.89.

Regarding `C[C@]12CCCN[C@@]1(C)c1ccccc1C2` (racemic) [Example 63, (4aRS,9bRS)-4a,9b-dimethyl-2,3,4,4a,5,9b-hexahydro-1H-indeno[1,2-b]pyridine hydrochloride], the pIC50 with NMDA receptor [2] (read-out: IC50) is 5.52. The 50% effective dose (ED50) in the experiment with male ddy mouse (setting [4]) worked out at 5.8 mg/kg. This molecule gave a negative-log Ki (pKi) on NMDA receptor [3] of 6.10.

As to `CC[C@]12CCCN[C@H]1c1cc(COC)ccc1C2` (racemic) [Example 73, (4aRS,9bRS)-4a-ethyl-8-(methoxymethyl)-2,3,4,4a,5,9b-hexahydro-1H-indeno[1,2-b]pyridine hydrochloride], on NMDA receptor [3], the pKi was 5.15.

On to `CC[C@]12CCCN[C@H]1c1ccccc1C2` (single isomer, unassigned) [Example 83-1, (4aR*,9bR*)-4a-ethyl-2,3,4,4a,5,9b-hexahydro-1H-indeno[1,2-b]pyridine hydrochloride], for which the pIC50 with NMDA receptor [2] (hydrochloride, read-out: IC50) is 5.51. For the same molecule, in the experiment with male ddy mouse (setting [4]), the ED50 worked out at 6.2 mg/kg. On NMDA receptor [3] (hydrochloride), the pKi is 6.22.

As for `CC[C@]12CCCN[C@H]1c1ccccc1C2` (single isomer, unassigned) [Example 83-2, (4aR*,9bR*)-4a-ethyl-2,3,4,4a,5,9b-hexahydro-1H-indeno[1,2-b]pyridine hydrochloride], the pIC50 with NMDA receptor [2] (hydrochloride, read-out: IC50) is 4.92. At NMDA receptor [3] (hydrochloride), this molecule showed a pKi of 5.57.

Regarding `C[C@]12CCCN[C@@]1(C)c1ccccc1C2` (single isomer, unassigned) [Example 84-1, (4aR*,9bR*)-4a,9b-dimethyl-2,3,4,4a,5,9b-hexahydro-1H-indeno[1,2-b]pyridine hydrochloride], in the experiment with NMDA receptor [2] (hydrochloride, read-out: IC50), the negative-log IC50 (pIC50) was 5.74. Further, in the experiment on male ddy mouse (hydrochloride), the ED50 is reported as 4.2 mg/kg, po. At NMDA receptor [3] (hydrochloride), this molecule showed a negative logarithm of the Ki (pKi) of 6.30.

Take `C[C@]12CCCN[C@@]1(C)c1ccccc1C2` (single isomer, unassigned) [Example 84-2, (4aR*,9bR*)-4a,9b-dimethyl-2,3,4,4a,5,9b-hexahydro-1H-indeno[1,2-b]pyridine hydrochloride]: the pIC50 with NMDA receptor [2] (hydrochloride, read-out: IC50) is 5.21. The ED50 in the experiment with male ddy mouse (hydrochloride) is 28 mg/kg, po. In addition, at NMDA receptor [3] (hydrochloride), the negative-log Ki (pKi) was 5.96.

On to `c1ccc([C@]23CCCN[C@H]2c2ccccc2C3)cc1` [Example 3], for which the pIC50 with NMDA receptor [2] was 5.17. For the same molecule, the ED50 with male ddy mouse (setting [4]) came to 39 mg/kg. For the same molecule, the negative-log Ki (pKi) on NMDA receptor [3] was 5.92.

Regarding `Cc1cc2c(s1)C[C@]1(C)CCCN[C@H]21` [Example 15], the ED50 in the experiment with male ddy mouse (setting [4]) is 38 mg/kg. For the same molecule, on NMDA receptor [1], the negative logarithm of the Ki (pKi) was 5.07.

For `C[C@@]12CCCN[C@@H]1c1ccccc1CC2` [Example 17], the ED50 in the experiment on male ddy mouse (setting [4]) was determined as 4.2 mg/kg. Also, the pKi on NMDA receptor [1] is 5.70.

`CC(C)[C@]12CCCN[C@@H]1c1ccccc1C2` [Example 32]: in the experiment with male ddy mouse (setting [4]), the ED50 was found to be 26 mg/kg. Further, at NMDA receptor [1], the negative logarithm of the Ki (pKi) is 5.17.

On to `COc1ccc2c(c1)[C@H]1N(C)CCC[C@@]1(C)C2` [Example 56], for which, on NMDA receptor [3], the pKi is 5.82.

`COC[C@]12CCCN[C@@]1(C)c1ccccc1C2` [Example 68]: the median effective dose (ED50) in the experiment with male ddy mouse (setting [4]) came out at 26 mg/kg. In addition, the pKi at NMDA receptor [1] was 6.22.

Regarding `CCOC[C@]12CCCN[C@@]1(C)c1ccccc1C2` [Example 69], the pKi on NMDA receptor [3] is 5.89.

On NMDA receptor [3], `CC[C@]12CCCN[C@H]1c1cc(CO)ccc1C2` [Example 77] showed a negative-log Ki (pKi) of 5.40.

Turning to `C[C@]12CCCN[C@H]1c1ccccc1C2` [Example 81, (4aR,9bR)-4a-methyl-2,3,4,4a,5,9b-hexahydro-1H-indeno[1,2-b]pyridine hydrochloride], the negative logarithm of the IC50 (pIC50) with NMDA receptor [2] (read-out: IC50) is 4.68. In addition, the median effective dose (ED50) in the experiment on male ddy mouse (setting [4]) was determined as 9.1 mg/kg. This molecule also showed a negative-log Ki (pKi) on NMDA receptor [3] of 5.70.

As for `C[C@@]12CCCN[C@@H]1c1ccccc1C2` [Example 82, (4aS,9bS)-4-a-methyl-2,3,4,4a,5,9b-hexahydro-1H-indeno[1,2-b]pyridine hydrochloride], the negative-log IC50 (pIC50) with NMDA receptor [2] (read-out: IC50) is 4.03. For the same molecule, the median effective dose (ED50) with male ddy mouse (setting [4]) came to 19 mg/kg. The same molecule had a pKi at NMDA receptor [1] of 5.17.
